According to US10058550B2, “Methods of treating heart failure” (priority 2015, dated 2018):

The compounds below were run against human APJ receptor (Homo sapiens (Human), UniProt P35414) (assay: biochemical). Details: read-out: Activity hAPJ SPA EC50 IP.
Type: biochemical
Experimental: The human APJ receptor was cloned by polymerase chain reaction and the gene encoding the receptor was subcloned in pFLAG-CMV™-3 expression vector (Sigma, Saint Louis, Mo. USA) in-house at Amgen. A GTPγS binding assay was performed on membranes prepared from CHO cells stably expressing human APJ receptor. The optimum experimental conditions for the concentrations of GDP, MgCl2, and NaCl in the assay buffer were initially determined. The assay was performed in assay buffer [20 mM HEPES, pH 7.5, 5 mM MgCl2, and 0.1% (w/v) BSA with 200 mM NaCl, 3 μM GDP] and membranes expressing human APJ receptor/well along with WGA PS beads. The reaction was initiated by addition of 0.2 nM [^35S]GTPγS (Perkin Elmer Life and Analytical Sciences, Waltham USA) in the absence or presence of various ligands and incubated at RT for 90 min. […] All the results presented are means of several independent experiments and analyzed by non-linear regression methods using commercially available program Prism (GraphPad, San Diego, Calif.) to obtain EC50 detailed in Table 58.

human APJ receptor, sequence (P35414 whole entry): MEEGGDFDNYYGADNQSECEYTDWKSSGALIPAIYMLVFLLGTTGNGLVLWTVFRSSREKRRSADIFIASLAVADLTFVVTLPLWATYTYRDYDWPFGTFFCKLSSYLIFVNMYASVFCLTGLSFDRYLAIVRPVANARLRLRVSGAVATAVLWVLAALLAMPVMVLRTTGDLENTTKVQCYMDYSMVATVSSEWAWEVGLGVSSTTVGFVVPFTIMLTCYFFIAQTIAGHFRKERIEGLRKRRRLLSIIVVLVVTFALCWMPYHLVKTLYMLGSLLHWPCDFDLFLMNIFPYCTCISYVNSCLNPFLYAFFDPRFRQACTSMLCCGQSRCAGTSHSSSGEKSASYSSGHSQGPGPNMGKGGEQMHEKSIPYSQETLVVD

| SMILES | EC50 [nM] |
| --- | --- |
| COc1cccc(-c2nnc(NS(=O)(=O)[C@H](C)C(=O)N3CCCC3)n2-c2c(OC)cccc2OC)n1 (mixture of isomers) [Example 83.0, (2R)-N-(4-(2,6-dimethoxyphenyl)-5-(6-methoxy-2-pyridinyl)-4H-1,2,4-triazol-3-yl)-1-oxo-1-(1-pyrrolidinyl)-2-propanesulfonamide and (2S)-N-(4-(2,6-dimethoxyphenyl)-5-(6-methoxy-2-pyridinyl)-4H-1,2,4-triazol-3-yl)-1-oxo-1-(1-pyrrolidinyl)-2-propanesulfonamide] | 48 |
| COc1cccc(OC)c1-n1c(NS(=O)(=O)[C@@H](C)[C@H](C)c2ncc(F)cn2)nnc1-c1cccnc1 (mixture of isomers) [Example 182.0, (2R,3S)-N-(4-(2,6-dimethoxyphenyl)-5-(3-pyridinyl)-4H-1,2,4-triazol-3-yl)-3-(5-fluoro-2-pyrimidinyl)-2-butanesulfonamide and (2S,3R)-N-(4-(2,6-dimethoxyphenyl)-5-(3-pyridinyl)-4H-1,2,4-triazol-3-yl)-3-(5-fluoro-2-pyrimidinyl)-2-butanesulfonamide] | 1.1 |
| COc1cccc(OC)c1-n1c(NS(=O)(=O)[C@@H](C)Cc2ncc(F)cn2)nnc1-c1ccccn1 (mixture of isomers) [Example 202.0, (2R)-N-(4-(2,6-dimethoxyphenyl)-5-(2-pyridinyl)-4H-1,2,4-triazol-3-yl)-1-(5-fluoro-2-pyrimidinyl)-2-propanesulfonamide and (2S)-N-(4-(2,6-dimethoxyphenyl)-5-(2-pyridinyl)-4H-1,2,4-triazol-3-yl)-1-(5-fluoro-2-pyrimidinyl)-2-propanesulfonamide] | 15.4 |
| COc1cccc(-c2nnc(NS(=O)(=O)C[C@H](O)c3ccc(Cl)cc3)n2-c2c(OC)cccc2OC)n1 (mixture of isomers) [Example 264.0, (R)-2-(4-chlorophenyl)-N-(4-(2,6-dimethoxyphenyl)-5-(6-methoxypyridin-2-yl)-4H-1,2,4-triazol-3-yl)-2-hydroxyethanesulfonamide and (S)-2-(4-chlorophenyl)-N-(4-(2,6-dimethoxyphenyl)-5-(6-methoxypyridin-2-yl)-4H-1,2,4-triazol-3-yl)-2-hydroxyethanesulfonamide] | 0.34 |
| COc1cccc(OC)c1-n1c(NS(=O)(=O)C[C@@H](O)C2CCC2)nnc1-c1cncc(C)c1 (mixture of isomers) [Example 382.0, (R)-2-cyclobutyl-N-(4-(2,6-dimethoxyphenyl)-5-(5-methylpyridin-3-yl)-4H-1,2,4-triazol-3-yl)-2-hydroxyethanesulfonamide and (S)-2-cyclobutyl-N-(4-(2,6-dimethoxyphenyl)-5-(5-methylpyridin-3-yl)-4H-1,2,4-triazol-3-yl)-2-hydroxyethanesulfonamide] | 73 |
| COc1cccc(-c2nnc(NS(=O)(=O)[C@H](C)[C@@H](O)C(C)(C)C)n2-c2c(OC)cccc2OC)n1 (mixture of isomers) [Example 433.0] | 42 |
| COc1cccc(OC)c1-n1c(NS(=O)(=O)[C@@H](C)[C@H](C)c2ncc(F)cn2)nnc1-c1cccc(C)n1 (mixture of isomers) [Example 452.0, (2S,3R)—N-(4-(2,6-dimethoxyphenyl)-5-(6-methyl-2-pyridinyl)-4H-1,2,4-triazol-3-yl)-3-(5-fluoro-2-pyrimidinyl)-2-butanesulfonamide and (2R,3S)—N-(4-(2,6-dimethoxyphenyl)-5-(6-methyl-2-pyridinyl)-4H-1,2,4-triazol-3-yl)-3-(5-fluoro-2-pyrimidinyl)-2-butanesulfonamide] | 1 |
| COc1cccc(OC)c1-n1c(NS(=O)(=O)[C@@H](C)Cc2ncc(F)cn2)nnc1-c1cccc(C)n1 (mixture of isomers) [Example 618.0, (S)-N-(4-(2,6-dimethoxyphenyl)-5-(6-methylpyridin-2-yl)-4H-1,2,4-triazol-3-yl)-1-(5-fluoropyrimidin-2-yl)propane-2-sulfonamide and (R)-N-(4-(2,6-dimethoxyphenyl)-5-(6-methylpyridin-2-yl)-4H-1,2,4-triazol-3-yl)-1-(5-fluoropyrimidin-2-yl)propane-2-sulfonamide] | 5.4 |
| COc1cccc(OC)c1-n1c(NS(=O)(=O)[C@H](C)[C@@H](OC)c2ncnn2C)nnc1-c1cncc(C)c1 (mixture of isomers) [Example 637.0, (1S,2R)-N-(4-(2,6-dimethoxyphenyl)-5-(5-methylpyridin-3-yl)-4H-1,2,4-triazol-3-yl)-1-methoxy-1-(1-methyl-1H-1,2,4-triazol-5-yl)propane-2-sulfonamide and (1R,2S)-N-(4-(2,6-dimethoxyphenyl)-5-(5-methylpyridin-3-yl)-4H-1,2,4-triazol-3-yl)-1-methoxy-1-(1-methyl-1H-1,2,4-triazol-5-yl)propane-2-sulfonamide] | 150 |
| COc1cccc(OC)c1-n1c(NS(=O)(=O)[C@@H](C)[C@H](O)c2ccc(Br)c(C)n2)nnc1-c1cccnc1 (mixture of isomers) [Example 642.0, (1R,2S)-1-(5-bromo-6-methylpyridin-2-yl)-N-(4-(2,6-dimethoxyphenyl)-5-(pyridin-3-yl)-4H-1,2,4-triazol-3-yl)-1-hydroxypropane-2-sulfonamide and (1S,2R)-1-(5-bromo-6-methylpyridin-2-yl)-N-(4-(2,6-dimethoxyphenyl)-5-(pyridin-3-yl)-4H-1,2,4-triazol-3-yl)-1-hydroxypropane-2-sulfonamide] | 0.48 |
| COc1cccc(-c2nnc(NS(=O)(=O)[C@H]3CCCO[C@H]3c3ncc(C)cn3)n2-c2c(OC)cccc2OC)n1 (mixture of isomers) [Example 648.0] | 33 |
| COc1cccc(OC)c1-n1c(NS(=O)(=O)C(C)Cc2ncc(F)cn2)nnc1-c1cncc(Br)c1 (racemic) [Example 146.0, (2R)-N-(5-(5-bromo-3-pyridinyl)-4-(2,6-dimethoxyphenyl)-4H-1,2,4-triazol-3-yl)-1-(5-fluoro-2-pyrimidinyl)-2-propanesulfonamide and (2S)-N-(5-(5-bromo-3-pyridinyl)-4-(2,6-dimethoxyphenyl)-4H-1,2,4-triazol-3-yl)-1-(5-fluoro-2-pyrimidinyl)-2-propanesulfonamide] | 2.1 |
| COc1cccc(OC)c1-n1c(NS(=O)(=O)[C@H](C)[C@@H](C)n2cc(C)cn2)nnc1-c1cncc(C)c1 (racemic) [Example 647.0] | 1.7 |
| COc1cccc(OC)c1-n1c(NS(=O)(=O)[C@H](C)[C@@H](C)c2cnc(C)cn2)nnc1-c1cccnc1 (racemic) [Example 701.0, (2R,3S)-N-(4-(2,6-dimethoxyphenyl)-5-(3-pyridinyl)-4H-1,2,4-triazol-3-yl)-3-(5-methyl-2-pyrazinyl)-2-butanesulfonamide, (2S,3R)-N-(4-(2,6-dimethoxyphenyl)-5-(3-pyridinyl)-4H-1,2,4-triazol-3-yl)-3-(5-methyl-2-pyrazinyl)-2-butanesulfonamide] | 2 |
| COc1cccc(-c2nnc(NS(=O)(=O)[C@@H](C)[C@@H](OC(C)C)c3ncc(C)cn3)n2-c2c(OC)cccc2OC)n1 (single isomer, unassigned) [Example 95.0] | 0.11 |
| CCO[C@@H](c1ncc(C)cn1)[C@@H](C)S(=O)(=O)Nc1nnc(-c2cccnc2)n1-c1c(OC)cccc1OC (single isomer, unassigned) [Example 108.0] | 150 |
| COc1cccc(OC)c1-n1c(NS(=O)(=O)[C@@H](C)Cc2ncc(F)cn2)nnc1-c1cncc(C)c1 (single isomer, unassigned) [Example 208.0] | 1 |
| COc1cccc(OC)c1-n1c(NS(=O)(=O)[C@@H](C)Cc2ncc(F)cn2)nnc1-c1cncc(C)c1 (single isomer, unassigned) [Example 209.0] | 4.9 |
| COc1cccc(OC)c1-n1c(NS(=O)(=O)[C@@H](C)Cc2ncc(F)cn2)nnc1-c1cnccc1C (single isomer, unassigned) [Example 217.0] | 180 |
| COc1cccc(OC)c1-n1c(NS(=O)(=O)[C@@H](C)Cc2ncc(F)cn2)nnc1-c1cnccc1C (single isomer, unassigned) [Example 218.0] | 300 |
| COc1cccc(OC)c1-n1c(NS(=O)(=O)[C@@H](C)Cc2ncc(F)cn2)nnc1-c1cncc(Cl)c1 (single isomer, unassigned) [Example 220.0] | 7.1 |
| COc1cccc(OC)c1-n1c(NS(=O)(=O)[C@@H](C)Cc2ncc(F)cn2)nnc1-c1cncc(Cl)c1 (single isomer, unassigned) [Example 221.0] | 35 |
| COc1cccc(OC)c1-n1c(NS(=O)(=O)[C@@H](C)[C@H](C)c2ncc(F)cn2)nnc1-c1cncc(C)c1 (single isomer, unassigned) [Example 234.0] | 16 |
| COc1cccc(OC)c1-n1c(NS(=O)(=O)[C@@H](C)[C@H](C)c2ncc(F)cn2)nnc1-c1cncc(C)c1 (single isomer, unassigned) [Example 235.0] | 0.28 |
| COc1cccc(OC)c1-n1c(NS(=O)(=O)[C@@H](C)[C@H](C)c2ncc(F)cn2)nnc1-c1cncc(C)c1 (single isomer, unassigned) [Example 236.0] | 100 |
| COc1cccc(OC)c1-n1c(NS(=O)(=O)[C@@H](C)[C@H](C)c2ncc(F)cn2)nnc1-c1cncc(C)c1 (single isomer, unassigned) [Example 237.0] | 14 |
| COc1cccc(OC)c1-n1c(NS(=O)(=O)[C@@H](C)[C@H](O)c2ccc(C#N)cc2)nnc1-c1cncc(C)c1 (single isomer, unassigned) [Example 248.0] | 60 |
